Results on 5 compounds are retold here after PubChem BioAssay AID2060885 (Molecular Pharmacology Branch, DTP, NCI, 2025).

This test deals with NCI-H23 complex spheroids with HUVEC/MSC, viability. Description: Anticancer human tumor NCI-H23 cell line growth inhibition [RAS].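 As to all read-outs here: spheroids exposed to compound for 7 days.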 The following applies: for viability, T/C: stronger effect = lower value; for IC50: curve of compound. The source says: RAS pathway inhibitors in Combinations in Complex Spheroids
A high-throughput screen of multi-cell type tumor spheroids was designed to identify active combinations of RAS pathway inhibitors and targeted small molecules. Complex spheroids include a stromal component modeled by human endothelial cells (HUVEC) and fibroblasts modeled by human mesenchymal stem cells (MSCs). The concentration ranges selected for each drug and investigational agent were based upon clinically achievable concentrations if the clinical Cmax of the agent was known.
Compounds. The drugs and investigational agents: abemaciclib (NSC768073), cobimetinib (NSC768068), divarasib (GDC6063, NSC841802), docetaxel (NSC628503), GDC-1971 (RLY-1971, NSC841576), gemcitabine (NSC613327), inavolisib (NSC800729), ipatasertib (NSC767898), KB-0742 (NSC834161), MRTX-1133 (NSC836407), osimertinib (NSC779217), RMC-4630 (NSC839698), RMC-6236 (NSC851965), RMC-6291 (NSC852671), Ro-3306 (NSC812927), sapanisertib (NSC764658), SN-38 (NSC673596), staurosporine (NSC755774), SY5609 (NSC837396), and tovorafenib (DAY101, NSC766906), were obtained from the National Cancer Institute (NCI) Developmental Therapeutics Program Chemical Repository. The FDA-approved anticancer drug set is available from the NCI Developmental Therapeutics Program. […] The stock solutions were prepared in dimethyl sulfoxide (DMSO, Sigma-Aldrich, St. Louis, MO, cat. D2650) at 800-fold the tested concentration and stored at -70 degrees C prior to their use. All drugs and investigational agents were tested over a range starting from a high concentration at or near the clinical Cmax and decreasing in half-log increments. If the clinical Cmax for an agent had not been determined, the highest concentration tested was 10 microM.
Cell Culture. All cells were maintained in an incubator at 37 degrees C and 5% CO2 with 95% humidity. The PDC lines were cultured according to standard operating procedures established by the NCI PDMR. All PDCs were thawed and cultured in Matrigel-coated flasks prepared with a working solution of 1X Ham's F-12 nutrient mix, without supplementation (Invitrogen, Waltham, MA, cat. 11765054), 100 U/mL penicillin-streptomycin (Invitrogen, cat. 15140122), and 2.5% Matrigel (Corning Inc., Corning, NY, cat. 354248) for the first three passages. The 362531-283-R-J2-PDC and 782815-120-R-J1-PDC lines were cultured in 6C/Colon 1B media, which includes advanced DMEM/F-12 (Thermo Fisher Scientific, cat. 12634028), 10 mM HEPES (Thermo Fisher Scientific, cat. 15630080), 1X GlutaMAX supplement (Thermo Fisher Scientific, cat. 35050061), 0.1 mg/mL primocin (InvivoGen, San Diego, CA, cat. ant-pm-2), 10% defined fetal bovine serum, heat inactivated (HyClone Laboratories Inc., Logan, UT, cat. SH30070.03HI), 50% L-WRN conditioned media (ATCC, cat. CRL-3276), 1.25 mM N-Acetyl-L-cysteine (Sigma-Aldrich, cat. A9165), 10 mM nicotinamide (Sigma-Aldrich, cat. N0636), 1X B-27 supplement (Thermo Fisher Scientific, cat. 17504044), 1X N-2 supplement (Thermo Fisher Scientific, cat. 17502048), 50 ng/mL human EGF (Thermo Fisher Scientific, cat. PHG0311), and 10 microM Y-27632 dihydrochloride (Tocris Bioscience, cat. 1254). The K12877-001-R-J1-PDC line was cultured in 6I media, which includes all 6C/Colon 1B media plus 10 ng/mL human FGF-10 (PeproTech, cat. 100-26), 1 ng/mL human FGF-2 (PeproTech, cat. 100-18B), 1 µM prostaglandin E2 (Tocris Bioscience, cat. 2296), […] hydrocortisone (Sigma-Aldrich, cat. H4001), and […] bovine insulin (Sigma-Aldrich, cat. I6634). The K86415-001-R-J1-PDC line was cultured in 6D media, which includes all 6C/Colon 1B media components minus the L-WRN conditioned media. The 485176-168-R4-J1-PDC was cultured in PANC media, which includes all 6C/Colon 1B media plus 100 ng/mL human FGF-10 (PeproTech, cat. 100-26), 500 nM SB-431542 (Selleckchem, cat. S1067), and 10 nM gastrin (Tocris Bioscience, cat. 3006). […]

Where “and” joins values, the source holds several entries; their conditions need not be identical. Equal values may be shown once.

Broadly, the viability, T/C is the ratio of treated to control. As usually defined, the IC50 is the concentration needed to halve the response being measured. Regarding `CC(=O)OC12COC1CC(O)C1(C)C(=O)C(O)C3=C(C)C(OC(=O)C(O)C(NC(=O)OC(C)(C)C)c4ccccc4)CC(O)(C(OC(=O)c4ccccc4)C21)C3(C)C` (stereo unspecified), the half-inhibitory concentration (IC50) was under 31.6 nM. In addition, where the note is “compound 0.0316 µM”, the viability, T/C is 31.2% [middle of 4 runs]. Also, the viability, T/C (compound 0.1 µM) was 32.3% [middle of 4 runs]. Also, the viability, T/C (compound 0.316 µM) was 28.2% [middle of 4 runs]. The viability, T/C (compound 1 µM) was 34.6% [middle of 4 runs]. In addition, the viability, T/C (compound 3.16 µM) was 50.4% [middle of 4 runs]. Moreover, the viability, T/C (compound 10 µM) was 63.5% [middle of 4 runs].

On to `CC1(O)CCCC1n1c(=O)c(C(F)F)cc2cnc(NC3CCN(S(C)(=O)=O)CC3)nc21` (stereo unspecified), for which the IC50 is 4.68 µM [middle of 4 runs]. Moreover, the viability, T/C (compound 0.0316 µM) is 94% [middle of 4 runs]. Where the note is “compound 0.316 µM”, the viability, T/C was 67.5% [middle of 4 runs]. For the same compound, the viability, T/C (compound 1 µM) is 80.9% [middle of 4 runs]. In addition, the viability, T/C (compound 3.16 µM) was 71.7% [middle of 4 runs]. Moreover, the viability, T/C (compound 10 µM) was 14.3% [middle of 4 runs].

On to `CCC(CC)c1cc(NC2CCC(N)C2)n2nccc2n1` (stereo unspecified), for which the IC50 was 1.81 µM [middle of 4 runs]. The viability, T/C (compound 0.0316 µM) was 106% and 101% and 105% (2×). Further, the viability, T/C (compound 0.1 µM) was 108% [middle of 4 runs]. For the same compound, the viability, T/C (compound 0.316 µM) is 101% [middle of 4 runs]. In addition, where the note is “compound 1 µM”, the viability, T/C was 88.2% [middle of 4 runs]. The viability, T/C (compound 3.16 µM) was 15.2% [middle of 4 runs]. Besides, for the setting “compound 10 µM”, the viability, T/C was 0.91% [middle of 4 runs].

For the compound `Cc1nc(N2CCC3(CC2)COC(C)C3N)c(CO)nc1Sc1ccnc(N)c1Cl` (stereo unspecified), the viability, T/C is 103% [middle of 4 runs] (compound 0.0316 µM); 74.3% [middle of 4 runs] (compound 0.316 µM); 61.8% [middle of 4 runs] (compound 1 µM); 52.3% [middle of 4 runs] (compound 3.16 µM); 48.9% [middle of 4 runs] (compound 10 µM).

Consider `NC1c2ccccc2OC12CCN(c1cnc3c(N4CCCc5ncccc54)n[nH]c3n1)CC2` (stereo unspecified), for which the viability, T/C runs as follows: (compound 0.0316 µM) 72.5% [middle of 4 runs]; (compound 0.1 µM) 66.6% [middle of 4 runs]; (compound 0.316 µM) 44.9% [middle of 4 runs]; (compound 1 µM) 42.2% [middle of 4 runs]; (compound 3.16 µM) 41.3% [middle of 4 runs]; (compound 10 µM) 44.1% [middle of 4 runs].
